Test results reported in ChEMBL document CHEMBL2073788, “Troglitazone-induced intrahepatic cholestasis by an interference with the hepatobiliary export of bile acids in male and female rats. Correlation with the gender difference in troglitazone sulfate formation and the inhibition of the canalicular bile salt export pump (Bsep) by troglitazone and …” (Toxicology, 2001).
Counter-ions that a name gives are not always drawn.

Columns and labels:
Bile salt export pump [1] = molecular target: T1, Bile salt export pump (Rattus norvegicus, UniProt O70127); assay: TP_TRANSPORTER: inhibition of Taurocholate uptake (Taurocholate: 1 uM) in liver canalicular membrane vesicle from male rat; assay type: functional, cell membranes
T1 sequence (O70127 whole entry): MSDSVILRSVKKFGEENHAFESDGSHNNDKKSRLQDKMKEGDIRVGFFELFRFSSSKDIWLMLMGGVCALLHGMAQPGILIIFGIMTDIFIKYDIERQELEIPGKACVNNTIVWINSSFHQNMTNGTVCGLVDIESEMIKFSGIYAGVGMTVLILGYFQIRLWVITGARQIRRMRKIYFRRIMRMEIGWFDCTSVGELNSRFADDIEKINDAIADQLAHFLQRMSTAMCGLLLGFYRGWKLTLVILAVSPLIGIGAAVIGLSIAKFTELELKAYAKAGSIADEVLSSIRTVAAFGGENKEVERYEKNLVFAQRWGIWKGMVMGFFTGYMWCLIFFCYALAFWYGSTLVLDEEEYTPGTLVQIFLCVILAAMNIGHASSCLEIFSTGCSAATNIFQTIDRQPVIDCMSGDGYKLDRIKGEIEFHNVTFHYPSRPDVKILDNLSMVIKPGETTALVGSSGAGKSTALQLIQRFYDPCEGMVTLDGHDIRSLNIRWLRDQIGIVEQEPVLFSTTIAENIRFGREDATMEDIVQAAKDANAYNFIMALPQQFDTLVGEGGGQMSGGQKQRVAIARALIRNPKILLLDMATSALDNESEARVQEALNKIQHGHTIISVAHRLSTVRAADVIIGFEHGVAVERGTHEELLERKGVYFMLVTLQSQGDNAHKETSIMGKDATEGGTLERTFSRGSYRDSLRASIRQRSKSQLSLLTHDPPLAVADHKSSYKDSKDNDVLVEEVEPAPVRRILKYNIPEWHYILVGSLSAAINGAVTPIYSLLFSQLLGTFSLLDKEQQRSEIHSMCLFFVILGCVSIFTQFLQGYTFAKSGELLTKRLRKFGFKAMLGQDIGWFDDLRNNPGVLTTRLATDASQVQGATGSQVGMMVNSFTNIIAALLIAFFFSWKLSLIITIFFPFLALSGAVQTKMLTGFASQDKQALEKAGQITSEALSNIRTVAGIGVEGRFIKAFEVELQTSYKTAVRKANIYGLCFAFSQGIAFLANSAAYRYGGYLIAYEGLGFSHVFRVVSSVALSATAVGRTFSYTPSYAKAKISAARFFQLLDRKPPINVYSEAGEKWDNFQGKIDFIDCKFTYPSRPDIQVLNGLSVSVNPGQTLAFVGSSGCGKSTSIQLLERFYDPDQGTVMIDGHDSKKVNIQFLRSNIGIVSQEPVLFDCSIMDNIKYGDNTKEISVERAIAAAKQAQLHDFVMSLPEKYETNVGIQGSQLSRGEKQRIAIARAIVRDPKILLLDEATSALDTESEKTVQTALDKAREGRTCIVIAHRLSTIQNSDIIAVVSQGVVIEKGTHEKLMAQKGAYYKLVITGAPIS

Bile salt export pump [2] = molecular target: T1, Bile salt export pump; assay: TP_TRANSPORTER: inhibition of Taurocholate uptake (Taurocholate: 1 uM) in liver canalicular membrane vesicle from female rat; assay type: functional, cell membranes

COc1ccc(Cl)cc1C(=O)NCCc1ccc(S(=O)(=O)NC(=O)NC2CCCCC2)cc1 [GLYBURIDE]
IC50 (Bile salt export pump [1]): 8.6 µM
IC50 (Bile salt export pump [2]): 15.7 µM

Cc1c(C)c2c(c(C)c1OS(=O)(=O)O)CCC(C)(COc1ccc(CC3SC(=O)NC3=O)cc1)O2 (stereo not given) [TROGLITAZONE SULFATE]
IC50 (Bile salt export pump [1]): 0.4 µM
IC50 (Bile salt export pump [2]): 0.6 µM

Cc1c(C)c2c(c(C)c1O)CCC(C)(COc1ccc(CC3SC(=O)NC3=O)cc1)O2 (stereo not given) [TROGLITAZONE]
IC50 (Bile salt export pump [2]): 3.9 µM
